The record followed here is PubChem BioAssay AID192 (DTP/NCI, 2004).

Each structure is given as a SMILES string. Several values for one entry are separate records, joined by “and”; a condition that tells them apart may be missing. Equal entries are not always repeated. Toxic doses and inconclusive results are not listed.

The subject of the assay is BDF1 mice, B16 melanoma ip, median survival T/C. As to the kind of experiment: NCI In Vivo Anticancer Drug Screen. Data for tumor model B16 Melanoma (intraperitoneal) in B6D2F1 (BDF1) mice. The following applies: endpoint: median survival time, higher = longer survival. A digest of the protocol: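 Survival or tumor size is measured after treatment of tumor-bearing mice and normalised to the vehicle-treated control group.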

The mark [1] stands for this setting: dose: 100.0 mg/kg/injection, schedule: Q04DX003 (ip), vehicle: Klucel (hydroxypropylcellulose) (HPC).
Setting [2] is: dose: 200.0 mg/kg/injection, schedule: Q04DX003 (ip), vehicle: Klucel (hydroxypropylcellulose) (HPC).
[3] abbreviates: dose: 400.0 mg/kg/injection, schedule: Q04DX003 (ip), vehicle: Klucel (hydroxypropylcellulose) (HPC).
[4] abbreviates: dose: 50.0 mg/kg/injection, schedule: Q01DX009 (ip), vehicle: saline.
Setting [5] is: dose: 100.0 mg/kg/injection, schedule: Q01DX009 (ip), vehicle: Klucel (hydroxypropylcellulose) (HPC).
The mark [6] stands for this setting: dose: 200.0 mg/kg/injection, schedule: Q01DX009 (ip), vehicle: Klucel (hydroxypropylcellulose) (HPC).
Where [7] appears, read: dose: 12.5 mg/kg/injection, schedule: Q01DX009 (ip), vehicle: saline with Tween-80.
The mark [8] stands for this setting: dose: 25.0 mg/kg/injection, schedule: Q01DX009 (ip), vehicle: saline with Tween-80.
Where [9] appears, read: dose: 50.0 mg/kg/injection, schedule: Q01DX009 (ip), vehicle: saline with Tween-80.
[10] abbreviates: dose: 12.5 mg/kg/injection, schedule: Q01DX009 (ip), vehicle: Klucel (hydroxypropylcellulose) (HPC).
Where [11] appears, read: dose: 25.0 mg/kg/injection, schedule: Q01DX009 (ip), vehicle: Klucel (hydroxypropylcellulose) (HPC).
The mark [12] stands for this setting: dose: 50.0 mg/kg/injection, schedule: Q01DX009 (ip), vehicle: Klucel (hydroxypropylcellulose) (HPC).
[13] abbreviates: dose: 1.56 mg/kg/injection, schedule: Q01DX009 (ip), vehicle: Klucel (hydroxypropylcellulose) (HPC).
The mark [14] stands for this setting: dose: 3.13 mg/kg/injection, schedule: Q01DX009 (ip), vehicle: saline with Tween-80.
The mark [15] stands for this setting: dose: 6.25 mg/kg/injection, schedule: Q01DX009 (ip), vehicle: saline with Tween-80.
[16] abbreviates: dose: 3.12 mg/kg/injection, schedule: Q01DX009 (ip), vehicle: Klucel (hydroxypropylcellulose) (HPC).

For `CCOC(=O)C1CCCN(S(=O)(=O)c2ccc(C)cc2)c2ccccc2C1=O` (centres undefined), the T/C was 96 % of control under setting [1], 88 % of control under setting [2] and 95 % of control under setting [3].

Consider `NN1C(=O)c2ccc3c4c(ccc(c24)C1=O)CC3`, for which the T/C reads like this: (dose: 50.0 mg/kg/injection, schedule: Q01DX009 (ip), vehicle: suspension in saline) 104 % of control; (dose: 100.0 mg/kg/injection, schedule: Q01DX009 (ip), vehicle: suspension in saline) 102 % of control; (dose: 200.0 mg/kg/injection, schedule: Q01DX009 (ip), vehicle: suspension in saline) 97 % of control; (dose: 400.0 mg/kg/injection, schedule: Q01DX009 (ip), vehicle: suspension in saline) 102 % of control.

For the molecule `CN1CCC(CO)C1` (centres undefined), the T/C reads like this: (dose: 6.25 mg/kg/injection, schedule: Q01DX009 (ip), vehicle: water) 99 % of control; (dose: 12.5 mg/kg/injection, schedule: Q01DX009 (ip), vehicle: water) 109 % of control; (dose: 25.0 mg/kg/injection, schedule: Q01DX009 (ip), vehicle: water) 108 % of control; under setting [4], 100 % of control; (dose: 50.0 mg/kg/injection, schedule: Q01DX009 (ip), vehicle: water) 103 % of control; (dose: 100.0 mg/kg/injection, schedule: Q01DX009 (ip), vehicle: saline) 97 % of control. For the setting “dose: 200.0 mg/kg/injection, schedule: Q01DX009 (ip), vehicle: saline”, the T/C is 91 % of control.

In the case of `Cc1c(Cl)cccc1NC(=O)c1cccc(C(=O)Nc2cccc(Cl)c2C)c1`, the T/C runs as follows: under setting [5], 106 % of control; under setting [6], 103 % of control; (dose: 400.0 mg/kg/injection, schedule: Q01DX009 (ip), vehicle: Klucel (hydroxypropylcellulose) (HPC)) 93 % of control.

Consider `Nc1ccc(S(=O)(=O)N/N=C/c2ccccc2Cl)cc1`, for which the T/C reads like this: under setting [7], 107 % of control; under setting [8], 102 % of control; under setting [9], 107 % of control.

Turning to `O=S1(=O)OCc2ccccc21`, the T/C reads like this: under setting [10], 115 % of control; under setting [11], 108 % of control; under setting [12], 118 % of control.

For `COc1ccc(S(=O)O)cc1NC(C)=O`, the T/C under setting [1] is 95 % of control.

Take `CC(=O)Nc1ccc(OC(=O)Nc2cccc3ccccc23)cc1`: the T/C is 96 % of control (dose: 50.0 mg/kg/injection, schedule: Q04DX003 (ip), vehicle: Klucel (hydroxypropylcellulose) (HPC)); 106 % of control under setting [1]; 93 % of control under setting [2].

As for `CC(=N\O)/C(C)=N/O.CC(=N\O)/C(C)=N/O.CC(=N\O)/C(C)=N/O.CC(=N\O)/C(C)=N/O.[Cu].[Cu]`, the T/C runs as follows: (dose: 0.78 mg/kg/injection, schedule: Q01DX009 (ip), vehicle: Klucel (hydroxypropylcellulose) (HPC)) 93 % of control; under setting [13], 103 % of control; (dose: 3.13 mg/kg/injection, schedule: Q01DX009 (ip), vehicle: Klucel (hydroxypropylcellulose) (HPC)) 103 % of control.

As for `FC(F)(F)c1ccc2c(c1)N(CCCN1CCN(CCN3CCCCC3)CC1)c1ccccc1S2`, the T/C is, setting by setting: (dose: 0.78 mg/kg/injection, schedule: Q01DX009 (ip), vehicle: saline) 100 % of control; (dose: 1.56 mg/kg/injection, schedule: Q01DX009 (ip), vehicle: saline) 105 % of control; (dose: 6.25 mg/kg/injection, schedule: Q01DX009 (ip), vehicle: saline) 97 % of control.

As for `CC(C)N1CSC(=S)N(Cc2ccccc2)C1`, the T/C is 96 % of control under setting [5] and 105 % of control under setting [6].

For `Cc1noc(/N=C/c2cccc(Cl)c2)c1C`, the T/C runs as follows: (dose: 175.0 mg/kg/injection, schedule: Q04DX003 (ip), vehicle: Klucel (hydroxypropylcellulose) (HPC)) 107 % of control; (dose: 265.0 mg/kg/injection, schedule: Q04DX003 (ip), vehicle: Klucel (hydroxypropylcellulose) (HPC)) 116 % of control; under setting [3], 109 % of control; (dose: 600.0 mg/kg/injection, schedule: Q04DX003 (ip), vehicle: Klucel (hydroxypropylcellulose) (HPC)) 107 % of control.

As for `CN(C)c1ncnc2c1ncn2C1OC(CO)C(N)C1O` (centres undefined), the T/C is, setting by setting: (dose: 25.0 mg/kg/injection, schedule: Q01DX009 (ip), vehicle: saline) 111 % of control; under setting [4], 118 % of control.

Turning to `CSc1nc2cc(C)c(C)cc2[nH]1`, the T/C under setting [8] is 100 % of control; the T/C under setting [9] is 97 % of control; the T/C (dose: 100.0 mg/kg/injection, schedule: Q01DX009 (ip), vehicle: saline with Tween-80) was 97 % of control and 102 % of control.

Turning to `CC(=O)c1ccccc1C`, the T/C runs as follows: under setting [7], 102 % of control; under setting [8], 108 % of control; under setting [9], 92 % of control and 123 % of control.

For the molecule `C=C1CCN(c2ccc(F)cc2)C1=O`, the T/C is 104 % of control (dose: 4.0 mg/kg/injection, schedule: Q01DX009 (ip), vehicle: saline + alcohol); 100 % of control (dose: 16.0 mg/kg/injection, schedule: Q01DX009 (ip), vehicle: saline + alcohol); 112 % of control (dose: 32.0 mg/kg/injection, schedule: Q01DX009 (ip), vehicle: saline + alcohol); 110 % of control (dose: 64.0 mg/kg/injection, schedule: Q01DX009 (ip), vehicle: saline + alcohol).

Take `O=C1C(Cl)=C(Cl)C(=O)c2ccccc21`: the T/C is 87 % of control (dose: 5.0 mg/kg/injection, schedule: Q01DX009 (ip), vehicle: saline with Tween-80) and 87 % of control (dose: 10.0 mg/kg/injection, schedule: Q01DX009 (ip), vehicle: saline with Tween-80).

As for `CC(=O)CC(=O)Oc1ccccc1OC(C)=O`, the T/C under setting [12] was 94 % of control and the T/C under setting [5] is 100 % of control.

Turning to `CCN=NNc1ccc(C)cc1`, the T/C under setting [14] was 95 % of control; the T/C under setting [15] was 91 % of control; the T/C (dose: 6.25 mg/kg/injection, schedule: Q04DX003 (ip), vehicle: saline with Tween-80) is 94 % of control; the T/C under setting [7] is 97 % of control; the T/C (dose: 12.5 mg/kg/injection, schedule: Q04DX003 (ip), vehicle: saline with Tween-80) is 101 % of control; the T/C under setting [8] is 91 % of control. Besides, the T/C (dose: 25.0 mg/kg/injection, schedule: Q04DX003 (ip), vehicle: saline with Tween-80) was 103 % of control.

Take `COC(=O)c1ccc(C(=O)OC)[n+]([O-])c1`: the T/C (dose: 100.0 mg/kg/injection, schedule: Q04DX003 (ip), vehicle: saline) was 105 % of control; the T/C (dose: 200.0 mg/kg/injection, schedule: Q04DX003 (ip), vehicle: saline) was 112 % of control; the T/C (dose: 400.0 mg/kg/injection, schedule: Q04DX003 (ip), vehicle: saline) is 105 % of control.

As to `CCCCNC(=O)C1C=C2c3cccc4[nH]cc(c34)CC2N(C)C1` (centres undefined), the T/C reads like this: under setting [16], 93 % of control; under setting [10], 91 % of control; under setting [11], 93 % of control; under setting [12], 96 % of control.

For `Cc1c2cccc(F)c2c[n+]2ccccc12`, the T/C was 100 % of control (dose: 6.25 mg/kg/injection, schedule: Q01DX009 (ip), vehicle: Klucel (hydroxypropylcellulose) (HPC)); 100 % of control under setting [10]; 106 % of control under setting [11].

On to `CC(=O)Nc1ccc(NC(=O)c2ccc([As](O)O)cc2)cc1`, for which the T/C under setting [10] was 104 % of control, the T/C under setting [11] was 105 % of control, the T/C under setting [12] is 91 % of control and the T/C under setting [5] is 105 % of control.

In the case of `COc1cc2c3c(c4ccc(OC)c(OC)c4c2cc1OC)CN1CCC[C@@H]1C3`, the T/C is, setting by setting: (dose: 2.0 mg/kg/injection, schedule: Q01DX009 (ip), vehicle: saline with Tween-80) 97 % of control; (dose: 4.0 mg/kg/injection, schedule: Q01DX009 (ip), vehicle: saline with Tween-80) 89 % of control; (dose: 8.0 mg/kg/injection, schedule: Q01DX009 (ip), vehicle: saline with Tween-80) 102 % of control and 118 % of control; (dose: 16.0 mg/kg/injection, schedule: Q01DX009 (ip), vehicle: saline with Tween-80) 106 % of control.

Take `COC(=O)C1=C(C)NC(=O)NC1c1ccc(N(CCCl)CCCl)c(OC)c1` (centres undefined): the T/C was 154 % of control under setting [13], 178 % of control under setting [16], 176 % of control under setting [14] and 189 % of control under setting [15].
